Like-named read-outs stand apart in the source and are kept apart here.
Tests used:
[1] = Central migration (Kp value) measurement test; format: in vivo; conditions: male, Jcl ICR, mouse, brain/plasma, mice, ratio of intracerebral (μg/g) to plasma (μg/mL) concentration; for Kp at 1 h: po, 1 mg/kg, 1 mg/10 mL/kg
Experimental: A. Compounds of Examples 6 and 10 (Intravenous Administration: i.v.) […]
animal: male Jcl ICR mice 7-week-old n=3 […]
administration conditions: intravenous administration 0.20 mg/l mL/kg (4 compounds/cassette administration) administration medium: N,N-dimethylacetamide (DMA)/1,3-Butanediol (1:1) sample: plasma, brain (homogenate was prepared by adding 4-fold amount of saline) plasma sampling time: 0.25 hr brain sampling time: 0.25 hr […]
animal: male Jcl ICR mice 8-week-old n=3 […]
administration medium: DMA/1,3-Butanediol (1:1) […]
plasma sampling time: 0.5 hr brain sampling time: 0.5 hr […]
column: Shimadzu Shim-pack XR-ODS (2.2 μm, 2.0×30 mm) mobile phase A: 10 mmol/L ammonium formate/formic acid (100:0.2, v/v) mobile phase B: acetonitrile/formic acid (100:0.2, v/v) […]
column temperature: 50° C. sample injection volume: 1 μL (Example 6), 2 μL (Example 10) plasma pre-treatment conditions: A standard solution dissolution solvent (DMSO) or a standard solution (5 μL) was added to a sample (50 μL). Acetonitrile (150 μL) containing the internal standard substance was added, and the mixture was vigorously stirred and centrifuged at 5250 rpm. A dilution solvent (160 μL) was added to the centrifuged supernatant (60 μL). The solution (40 μL) was taken, and the dilution solvent (160 μL) was added to give a sample solution for compound plasma concentration measurement (mobile phase A:mobile phase B=7:3 (v/v) was used as the dilution solvent). brain pre-treatment conditions: The standard solution dissolution solvent (DMSO) or standard solution (5 μL) was added to a sample (50 μL). Acetonitrile (150 μL) containing the internal standard substance was added, and the mixture was vigorously stirred, and centrifuged at 5250 rpm. A dilution solvent (160 μL) was added to the centrifuged supernatant (60 μL). The solution (40 μL) was taken, and the dilution solvent (160 μL) was added to give a sample solution for intracerebral compound concentration measurement (mobile phase A:mobile phase B=7:3 (v/v) was used as the dilution solvent). B. Compounds of Examples 92 and 94 (Oral Administration: p.o.) animal: male Jcl ICR mice 10-week-old n=3 feeding: nonfasting administration conditions: oral administration 1 mg/10 mL/kg (5 compounds/cassette administration) administration medium: 0.5% methylcellulose solution sample: plasma, brain (homogenate was prepared by adding 4-fold amount of saline) plasma sampling time: 1 hr brain sampling time: 1 hr HPLC Analysis Conditions column: Shimadzu Shim-pack XR-ODS (2.2 μm, 2.0×30 mm) mobile phase A: 10 mmol/L ammonium formate/formic acid (100:0.2, v/v) mobile phase B: acetonitrile/formic acid (100:0.2, v/v) flow rate: 0.7 mL/min. column temperature: 50° C. sample injection volume: 1 μL […]

[2] = target: T1, human M1 receptor (hCHRM1) (Homo sapiens, UniProt P11229); assay: Measurement of cholinergic muscarinic M1 receptor positive allosteric modulator (M1PAM) activity, calcium fluorescence (FLIPRtetra); format: cell-based; conditions: for activity (%) at 10 μM: test compound 10 μM with acetylcholine at EC20 (final 0.6 nM), 100% = acetylcholine 1 μM, 0% = DMSO
T1 construct: expressed in transfected cells; host or cells: CHO-K1
T1 sequence (P11229 1-460): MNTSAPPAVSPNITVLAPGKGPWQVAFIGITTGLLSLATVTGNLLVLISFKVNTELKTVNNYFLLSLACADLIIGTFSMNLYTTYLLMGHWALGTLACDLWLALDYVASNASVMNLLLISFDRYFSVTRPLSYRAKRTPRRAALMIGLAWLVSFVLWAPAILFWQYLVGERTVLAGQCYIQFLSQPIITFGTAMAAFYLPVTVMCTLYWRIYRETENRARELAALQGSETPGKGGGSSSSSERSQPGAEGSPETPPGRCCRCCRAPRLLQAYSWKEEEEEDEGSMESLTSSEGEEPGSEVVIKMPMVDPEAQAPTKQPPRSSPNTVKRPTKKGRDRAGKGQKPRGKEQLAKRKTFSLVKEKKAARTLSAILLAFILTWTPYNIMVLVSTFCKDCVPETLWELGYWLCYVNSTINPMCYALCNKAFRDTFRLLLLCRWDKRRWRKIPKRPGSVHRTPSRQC
Experimental: The activity of a test compound in the presence of acetylcholine at EC20 concentration (final concentration 0.6 nM), which affords an action corresponding to 20% of the maximum activity, was measured as M1PAM activity. The method is as follows. CHO-K1 cells forcibly expressing a human M1 receptor (hCHRM1) were plated on a 384-well black clear bottom plate (BD Falcon) at 5,000 cells/well, and cultured in an incubator at 37° C., 5% CO2 for 1 day. The medium in the cell plate was removed, and assay buffer A (Recording medium (DOJINDO LABORATORIES), 0.1% bovine serum albumin (BSA) (Wako Pure Chemical Industries, Ltd.), 2.5 μg/mL Fluo-4 AM (DOJINDO LABORATORIES), 0.08% Pluronic F127 (DOJINDO LABORATORIES), 1.25 mM probenecid (DOJINDO LABORATORIES)) containing a calcium indicator was added at 30 μL/well. The cells were left standing in the incubator at 37° C., 5% CO2 for 30 min, and further left standing at room temperature for 30 min. A test compound prepared by diluting with assay buffer B (HBSS (Invitrogen), 20 mM HEPES (Invitrogen), 0.1% BSA) containing 2.4 nM acetylcholine was added at 10 μL/well, and the fluorescence was measured by FLIPRtetra (Molecular Devices) for 1 min every 1 second. With the definition that the amount of change in the fluorescence on addition of acetylcholine (final concentration 1 μM) is 100% and that on addition of DMSO instead of a test compound is 0%, the activity (%) of the test compound and the inflection point in the concentration-dependent curve of the test compound were calculated as IP values.

| Compound | Kp at 0.25 h ([1]; iv, 0.2 mg/kg, 0.2 mg/1 mL/kg, sampling time 0.25 hr) | EC50 [2] | activity (%) at 10 μM ([2]; CHO-K1 cells expressing hCHRM1) | Kp at 1 h [1] | Kp at 0.5 h ([1]; iv, 0.2 mg/kg, 0.2 mg/1 mL/kg, sampling time 0.5 hr) | EC50 ([2]; inflection point of the concentration-dependent curve, with acetylcholine at EC20 (final 0.6 nM), CHO-K1 cells expressing hCHRM1, read-out: IP value) |
| --- | --- | --- | --- | --- | --- | --- |
| COc1ccc(Cn2cc(C(=O)N[C@H]3CCOC[C@@H]3O)c(=O)c3c(F)ccc(F)c32)cc1 (racemic) [Example 6, 1,5-anhydro-2,3-dideoxy-3-({[5,8-difluoro-1-(4-methoxybenzyl)-4-oxo-1,4-dihydroquinolin-3-yl]carbonyl}amino)-DL-threo-pentitol] | 0.1 | 16 nM | 98% | – | – | – |
| O=C(N[C@H]1CCC[C@@H]1O)c1cn(Cc2ccc(-n3cccn3)cc2)c2c(F)cccc2c1=O (racemic) [Example 92, 8-fluoro-N-[(1,2-trans)-2-hydroxycyclopentyl]-4-oxo-1-[4-(1H-pyrazol-1-yl)benzyl]-1,4-dihydroquinoline-3-carboxamide] | – | 55 nM | 104% | 0.16 | – | – |
| Cc1nn(C)cc1-c1ccc(Cn2cc(C(=O)N[C@H]3CCC[C@@H]3O)c(=O)c3ccccc32)cc1 (racemic) [Example 94, 1-[4-(1,3-dimethyl-1H-pyrazol-4-yl)benzyl]-N-[(1,2-trans)-2-hydroxycyclopentyl]-4-oxo-1,4-dihydroquinoline-3-carboxamide] | – | 8.5 nM | 95% | 0.03 | – | – |
| COc1ccc(Cn2cc(C(=O)N[C@H]3CCCC[C@@H]3O)c(=O)c3c(F)ccc(F)c32)cc1 (racemic) [Example 10, 5,8-difluoro-N-[(1,2-trans)-2-hydroxycyclohexyl]-1-(4-methoxybenzyl)-4-oxo-1,4-dihydroquinoline-3-carboxamide] | – | 55 nM | 103% | – | 0.33 | – |
| COc1ccc(Cn2cc(C(=O)NN3CCCCC3)c(=O)c3c(F)ccc(F)c32)cc1 [Example 21, 5,8-difluoro-1-(4-methoxybenzyl)-4-oxo-N-piperidin-1-yl-1,4-dihydroquinoline-3-carboxamide] | – | – | 97% | – | – | 280 nM |

Reference: patent publication US9403802B2, “Heterocyclic compound and use therefor” (Takeda Pharmaceutical Company Limited, priority 2012, dated 2016)
